Assay results from US20200276181A1, “THIENOISOQUINOLINES AND THEIR DERIVATIVES FOR TARGETING TUBULIN, CH-TOG, AURORA A KINASE, TPX2, CDK5RAP2 AND/OR ASPM” (VALORBEC, SEC, priority 2017, published 2020).

What was measured:
Type in all cases: cell-based
[1] = system: HCT116 cells; assay: Mitotic arrest after one population doubling time; settings: HCT116, most responsive
From the text: (§1) For each condition, 20,000 cells were counted per replicate (N=3). Line graphs (right) were made to better illustrate the relative changes in the cell cycle phases for the different treatments. Bars show standard deviation. The asterisks indicate the first statistically significant change in the G0/G1 and G2/M populations determined by a two-way ANOVA with a post-hoc Tukey's multiple comparisons test using 95% confidence intervals. FIG. 2B) is a line graph showing the percentage of HCT116 (p53−/−) cells, A549 cells, HeLa cells and H1299 cells in mitosis after treatment with various concentrations of C75 for one population doubling time. All of the cell lines show an increase in the proportion of mitotic cells after treatment with 200 nM C75. The bars indicate standard deviation. […]
(§2) C75 was also tested for efficacy in different cancer cell lines. […] To further assess the role of C75 in disrupting spindles, HeLa cells were treated with 300 nM C75 for 4 hours and the spindle phenotypes were analyzed in more detail (FIG. 2E). […] To assess the affect of C75 on centrosomes, HeLa cells were treated with C75 or nocodazole (a drug that causes microtubule depolymerization as a control) for a short period of time (5 minutes), then the drugs were removed and the cells were analyzed for spindle phenotypes (schematic in FIG. 2G). […]

[2] = system: HCT116, HeLa and A549 cells; assay: Cell cycle phases by flow cytometry; settings: 300 nM or 400 nM for 8 hours
From the text: as §1, §2

[3] = system: HFF1 (non-cancer) cells; assay: Percentage of mitotic cells, nocodazole +/- C75; settings: 200 nM C75 + 33 or 66 nM nocodazole
Method: FIG. 3A) is a line graph showing cytotoxicity of HeLa cells after treatment with varying concentrations of C75+/−a subthreshold dose of paclitaxel (Taxol™; 3 nM). The IC50 is shown by the dotted line. Bars show standard deviation. […] The bars indicate standard deviation. FIG. 3C) is a series of bar graphs showing the proportion of HCT 116 cells with bipolar aligned (grey), bipolar misaligned (dark grey), multipolar/fragmented (light grey, top portion of each bar) or monopolar (black) spindles 7 hours after treatment with control (DMSO), varying concentrations of paclitaxel or C75, or both as indicated (n=691; N=3). The bars show standard deviation. The combination treatments were compared to paclitaxel and C75 on their own by calculating ratios varying from the predicted ratio, and found to synergize at 100 and 200 nM. FIG. 3D) is bar graph showing the average distance between centrosome fragments in HCT116 cells after treatments as shown. While centrosome fragments moved closer together with increased concentrations of paclitaxel, they moved further apart with increased concentrations of C75 (n=105; N=3). […] FIG. 3F) is a line graph showing the percentage of mitotic HeLa or HFF1 cells treated with a range of nocodazole concentrations+/−C75 as indicated. The bars indicate standard deviation. […]

COc1ccc(S(=O)(=O)N2Cc3ccccc3-c3sc(Br)cc32)cc1 [Compound C75]
concentration at which mitotic cells increase [1]: 100 nM
change in proportion of G2/M cells [2]: increase in the proportion of G2/M cells
change in proportion of mitotic cells [3]: no change
